Reference: BindingDB's records for doi:10.1021/jm00029a008 (Dupont Pharmaceuticals, 1994)
Where a name gives a salt, the structure may show the parent alone.

Legend:
[1] = Binding affinity for sigma receptor of guinea pig whole brain using [3H]-[…] radioligand
[2] = target: D(2) dopamine receptor (guinea pig); experiment: Binding affinity for dopamine D2 receptor using [3H]spiperone in guinea pig striatum

Compound	Ki [1]	Ki [2]
CC(C1CC1)N1CCC(C2CCc3ccccc3C2=O)CC1 (centres undefined) [2-[1-(1-Cyclopropyl-ethyl)-piperidin-4-yl]-3,4-dihydro-2H-naphthalen-1-one; hydrobromide]	0.026 µM	
O=C1c2ccc(F)cc2CCC1C1CCN(Cc2ccccc2)CC1 (centres undefined) [2-(1-Benzyl-piperidin-4-yl)-6-fluoro-3,4-dihydro-2H-naphthalen-1-one]	0.009 µM	0.062 µM
O=C1c2ccccc2CCC12CCN(Cc1ccc3ccccc3c1)CC2 [1'-(2-naphthylmethyl)spiro[1,2,3,4-tetrahydronaphthalene-2,4'-(hexahydropyridine)]-1-one ;malate]	0.011 µM	> 10 µM
O=C1CCc2ccccc2C12CCN(CCc1ccccc1)CC2 [1'-phenethylspiro[1,2,3,4-tetrahydronaphthalene-1,4'-(hexahydropyridine)]-2-one]	0.013 µM	> 10 µM
OC1CCc2ccccc2C12CCN(CCc1ccccc1)CC2 (centres undefined) [1'-phenethylspiro[1,2,3,4-tetrahydronaphthalene-1,4'-(hexahydropyridine)]-2-ol]		> 10 µM
O=C1c2ccccc2CCC12CCN(Cc1ccc(F)cc1)CC2 [1'-(4-fluorobenzyl)spiro[1,2,3,4-tetrahydronaphthalene-2,4'-(hexahydropyridine)]-1-one; hydrochloride]	0.004 µM	
O=C1c2ccccc2CCC1C1CCN(CC2CC2)CC1 (centres undefined) [2-(1-Cyclopropylmethyl-piperidin-4-yl)-3,4-dihydro-2H-naphthalen-1-one; hydrobromide]	0.026 µM	1.08 µM
O=C1c2ccccc2CCC1C1CCN(Cc2ccccc2)CC1 (centres undefined) [2-(1-Benzyl-piperidin-4-yl)-3,4-dihydro-2H-naphthalen-1-one; hydrochloride]	0.004 µM	1 µM
O=C1c2ccccc2CCC12CCN(CC1CCCCC1)CC2 [1'-cyclohexylmethylspiro[1,2,3,4-tetrahydronaphthalene-2,4'-(hexahydropyridine)]-1-one; hydrochloride]	0.002 µM	1.17 µM
COc1ccc2c(c1)CCC(C1CCN(Cc3ccccc3)CC1)C2=O (centres undefined) [2-(1-Benzyl-piperidin-4-yl)-6-methoxy-3,4-dihydro-2H-naphthalen-1-one]	0.007 µM	
O=C1c2ccccc2CCC1C1CCN(CCc2ccccc2)CC1 (centres undefined) [2-(1-Phenethyl-piperidin-4-yl)-3,4-dihydro-2H-naphthalen-1-one; hydrobromide]	0.01 µM	0.6 µM
O=C1c2ccccc2CCC12CCN(Cc1ccc(C(F)(F)F)cc1)CC2 [1'-(4-trifluoromethylbenzyl)spiro[1,2,3,4-tetrahydronaphthalene-2,4'-(hexahydropyridine)]-1-one; malate]	0.024 µM	
O=C1c2ccccc2CCC12CCN(Cc1ccccc1)CC2	0.001 µM	
COc1ccc(CN2CCC3(CCc4ccccc4C3=O)CC2)cc1 [1'-(4-methoxybenzyl)spiro[1,2,3,4-tetrahydronaphthalene-2,4'-(hexahydropyridine)]-1-one; hydrochloride]	0.003 µM	
CC(C)(C)c1ccc(CN2CCC3(CCc4ccccc4C3=O)CC2)cc1 [1'-[4-(tert-butyl)benzyl]spiro[1,2,3,4-tetrahydronaphthalene-2,4'-(hexahydropyridine)]-1-one; hydrochloride]	0.015 µM	
O=C1c2ccccc2CCC12CCN(Cc1ccc([N+](=O)[O-])cc1)CC2 [1'-(4-nitrobenzyl)spiro[1,2,3,4-tetrahydronaphthalene-2,4'-(hexahydropyridine)]-1-one; hydrochloride]	0.0019 µM	1.97 µM

Results, then the molecule that gave them:

Ki [1]	Ki [2]	Compound
0.005 µM		O=C1c2cccc(F)c2CCC1C1CCN(CCc2ccccc2)CC1 (centres undefined) [5-Fluoro-2-(1-phenethyl-piperidin-4-yl)-3,4-dihydro-2H-naphthalen-1-one; hydrochloride]
0.011 µM	0.061 µM	O=C1c2ccccc2CCC1C1CCN(Cc2ccc(F)cc2)CC1 (centres undefined) [2-[1-(4-Fluoro-benzyl)-piperidin-4-yl]-3,4-dihydro-2H-naphthalen-1-one; hydrochloride]
0.009 µM		O=C1c2ccc(Cl)cc2CCC1C1CCN(CCc2ccccc2)CC1 (centres undefined) [6-Chloro-2-(1-phenethyl-piperidin-4-yl)-3,4-dihydro-2H-naphthalen-1-one; hydrochloride]
0.035 µM		O=C1c2ccc(Cl)cc2CCC12CCN(CCc1ccccc1)CC2 [6-chloro-1'-phenethylspiro[1,2,3,4-tetrahydronaphthalene-2,4'-(hexahydropyridine)]-1-one]
0.019 µM		O=C1c2ccccc2CCC1C1CCN(Cc2ccc(C(F)(F)F)cc2)CC1 (centres undefined) [2-[1-(4-Trifluoromethyl-benzyl)-piperidin-4-yl]-3,4-dihydro-2H-naphthalen-1-one; hydrochloride]
0.026 µM	0.41 µM	CC(C)(C)c1ccc(CN2CCC(C3CCc4ccccc4C3=O)CC2)cc1 (centres undefined) [2-[1-(4-tert-Butyl-benzyl)-piperidin-4-yl]-3,4-dihydro-2H-naphthalen-1-one]
	0.344 µM	O=C1c2ccc(F)cc2CCC1C1CCN(CCc2ccccc2)CC1 (centres undefined) [6-Fluoro-2-(1-phenethyl-piperidin-4-yl)-3,4-dihydro-2H-naphthalen-1-one]
0.008 µM		Cc1ccc(CN2CCC(C3CCc4ccccc4C3=O)CC2)cc1 (centres undefined) [2-[1-(4-Methyl-benzyl)-piperidin-4-yl]-3,4-dihydro-2H-naphthalen-1-one; hydrate]
